Patent US20220347171A1, “TREATMENT OF PRURIGO NODULARIS” (TREVI THERAPEUTICS, INC., priority 2016, published 2022)
Structures can show the parent of a compound that is named as a salt.

Test system: prurigo nodularis patients
Assay: Double-blind, placebo-controlled trial in prurigo nodularis patients (Example 2): 7-day average daily Worst Itching Intensity NRS (0-10)
Type: in vivo, human
Procedure: This clinical study was a double-blind, placebo-controlled trial in which prurigo nodularis patients were randomized in a 1:1:1 ratio to nalbuphine ER tablets to a target dose of 90 mg twice daily (BID), nalbuphine HCl ER tablets 180 mg BID, or placebo tablets BID. Use of nonsedating rescue antihistamine medications (non-first generation H1-antihistamines [Simons F E. Advances in H1-antihistamines. N Engl J Med. 2004; 351(21):2203-17.]) were allowed in the study but their use was recorded. Cleansing emollients were allowed for hygiene purposes provided there were no active substances (such as menthol or urea) contained in the lotion. A placebo comparator was chosen because there are no approved treatments for prurigo nodularis in the United States or Europe or an established standard of care that could serve as an active control.
The primary objectives were to evaluate the effects of two doses of nalbuphine HCl ER tablets on the 7-day average daily worst itch (i.e., most severe) intensity using a Worst Itching Intensity Numerical Rating Scale (NRS, 0 [no itching]-10 [worst possible itching]; range, 0-10; anchors at 0 “no itching”; 4-6 “moderate itching”; and 10 “worst possible itching”) (FIG. 1) as well as safety and tolerability. The study was conducted at four North American sites and four European sites. The Sponsor oversaw the conduct of the trial and an independent unblinded Data Safety Monitoring Board reviewed safety data approximately once a month during the conduct of the trial.
The initial primary endpoint was the proportion of patients who achieved at least 30% reduction threshold in 7-day average daily diary-reported worst itch intensity NRS score from baseline to Week 10/last observed post-baseline value (LOV). For the primary endpoint, a responder was a patient who achieved at least 30% reduction threshold in 7-day average daily diary-reported worst itch intensity NRS score from baseline to Week 10/last observed post-baseline value (LOV).
Before study completion and unblinding, however, a more substantial 50% NRS reduction criterion was added as an important definition of response. For this criterion, a responder was a patient who achieved at least 50% reduction threshold in 7-day average daily diary-reported worst itch intensity NRS score from baseline to Week 10/last observed post-baseline value (LOV).
The modified intent-to-treat (MITT) population consisted of all randomly assigned patients who provided a baseline calculated NRS and at least one post-baseline NRS during randomized treatment. Patients were analyzed according to the treatment to which they were randomly assigned.
The primary worst itch NRS endpoint was evaluated by the calculation of proportions, and statistical testing of each nalbuphine dose and placebo was undertaken using a stratified categorical method, the Cochran-Mantel-Haenszel test that took into account site. Specifically, each nalbuphine group was compared to placebo in the form of a stratified (by site) 2×2 table with a P value reported for the nalbuphine HCl ER 180 mg BID versus placebo comparison and a P value separately reported for the nalbuphine HCl ER 90 mg BID versus placebo comparison. The lower nalbuphine dose versus placebo P value was evaluated only if the higher nalbuphine dose versus placebo P value was statistically significant at the 0.05 level. Data from all post-baseline visits were used to fit the model.
In the first 2 weeks of treatment, patients were blindly force-titrated to their assigned target dose, with the patients in the active arms reaching a dose of 90 mg BID (NAL 90) and, for those in the high dose group, to 180 mg BID (NAL 180) in the second week. Study drug was administered in blister cards containing the labeled morning and evening doses for each day of the week. Subsequently, patients continued stable doses of the study drug for an additional 8 weeks and were then washed off study drug and followed for another 2 weeks for itching intensity and safety.

Compound: Oc1ccc2c3c1OC1[C@@H](O)CC[C@@]4(O)[C@@H](C2)N(CC2CCC2)CC[C@]314 (stereo partly drawn) [Nalbuphine, 17-(cyclobutylmethyl)-4,5α-epoxymorphinian-3, 6α, 14-triol, hydrochloride]
- Responders: at least 30% reduction in 7-day average daily diary-reported worst itch intensity NRS score from baseline (90 mg BID, Week 10 - LOV, MITT N=22, P value 0.779 vs placebo): 6 (27.3) N (%)
- Responders: at least 50% reduction in 7-day average daily diary-reported worst itch intensity NRS score from baseline (90 mg BID, Week 10 - LOV, MITT N=22, p-value 0.981 vs placebo): 3 (13.6%) N (%)
- Responders: at least 30% reduction in 7-day average daily diary-reported worst itch intensity NRS score from baseline (90 mg BID, Week 10 - completer, N=18, P value 0.723 vs placebo): 6 (33.3) N (%)
- Responders: at least 50% reduction in 7-day average daily diary-reported worst itch intensity NRS score from baseline (90 mg BID, Week 10 - completer, N=18, p-value 0.649 vs placebo): 2 (11.1%) N (%)
- Responders: at least 30% reduction in 7-day average daily diary-reported worst itch intensity NRS score from baseline (180 mg BID, Week 10 - LOV, MITT N=18, P value 0.323 vs placebo): 8 (44.4) N (%)
- Responders: at least 50% reduction in 7-day average daily diary-reported worst itch intensity NRS score from baseline (180 mg BID, Week 10 - LOV, MITT N=18, p-value 0.083 vs placebo): 6 (33.3%) N (%)
- Responders: at least 30% reduction in 7-day average daily diary-reported worst itch intensity NRS score from baseline (180 mg BID, Week 10 - completer, N=12, P value 0.026 vs placebo): 9 (75.0) N (%)
- Responders: at least 50% reduction in 7-day average daily diary-reported worst itch intensity NRS score from baseline (180 mg BID, Week 10 - completer, N=12, p-value 0.028 vs placebo): 6 (50%) N (%)
- Mean Change from Baseline to the Last Observation in the Worst Itching NRS versus placebo (180 mg BID, patients who completed the study, P=0.025): statistically significant difference
